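Five compound concentrations were applied to cells in 96-well plates for 48 hours; endpoints were derived by simple linear interpolation of the resulting dose-response curve. Abbreviation: GI50, concentration required for 50% inhibition of growth.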 Calls of active or inactive are those of the source. No stated cut-off is given here; in the data, active = GI50 up to about 1.1 µM and inactive = higher.
Tests used:
Experiment in all cases: DTP human tumour cell line panel, 48 h
SNB-19 = tested on: SNB-19
OVCAR-5 = tested on: OVCAR-5
RXF 393 = tested on: RXF 393
A549 = tested on: A549
786-0 = tested on: 786-0
SK-MEL-2 = tested on: SK-MEL-2
NCI-H226 = tested on: NCI-H226
SNB-75 = tested on: SNB-75
K562 = tested on: K562
NCI-H460 = tested on: NCI-H460
SK-MEL-28 = tested on: SK-MEL-28
HOP-92 = tested on: HOP-92
ACHN = tested on: ACHN
DMS-273 = tested on: DMS-273
SF-539 = tested on: SF-539
SN12C = tested on: SN12C
HCT-15 = tested on: HCT-15
MCF7 = tested on: MCF7
DU-145 = tested on: DU-145

| SMILES | GI50 (SNB-19) | GI50 (OVCAR-5) | GI50 (RXF 393) | GI50 (A549) | GI50 (786-0) | GI50 (SK-MEL-2) | GI50 (NCI-H226) | GI50 (SNB-75) | GI50 (K562) | GI50 (NCI-H460) | GI50 (SK-MEL-28) | GI50 (HOP-92) | GI50 (ACHN) | GI50 (DMS-273) | GI50 (SF-539) | GI50 (SN12C) | GI50 (HCT-15) | GI50 (MCF7) | GI50 (DU-145) |
| --- | --- | --- | --- | --- | --- | --- | --- | --- | --- | --- | --- | --- | --- | --- | --- | --- | --- | --- | --- |
| CNC(=O)NCCN1N=C(C)/C(=C\c2ccccc2)CC1=O | > 100 µM (inactive) | > 100 µM (inactive) | > 100 µM (inactive) | > 100 µM (inactive) | > 100 µM (inactive) | > 100 µM (inactive) | > 100 µM (inactive) | 29 µM (inactive) | > 100 µM (inactive) | > 100 µM (inactive) | > 100 µM (inactive) | > 100 µM (inactive) | > 100 µM (inactive) | > 100 µM (inactive) | > 100 µM (inactive) | > 100 µM (inactive) |  |  |  |
| O=c1cc(-c2ccccc2)oc2cc(OCCCCCCCCCCOc3ccc4c(=O)cc(-c5ccccc5)oc4c3)ccc12 | > 100 µM (inactive) | > 100 µM (inactive) |  | > 100 µM (inactive) | > 100 µM (inactive) | > 100 µM (inactive) |  | 56.1 µM (inactive) | > 100 µM (inactive) |  | > 100 µM (inactive) | > 100 µM (inactive) | > 100 µM (inactive) | > 100 µM (inactive) | > 100 µM (inactive) | 42.5 µM (inactive) | > 100 µM |  |  |
| C1CCC(N=C2N(C3CCCCC3)C(=NC3CCCCC3)N2C2CCCCC2)CC1 | > 100 µM (inactive) | > 100 µM (inactive) | > 100 µM (inactive) | > 100 µM (inactive) | > 100 µM (inactive) | > 100 µM (inactive) |  | 20.9 µM (inactive) | > 100 µM (inactive) | > 100 µM (inactive) | > 100 µM (inactive) | 30.3 µM (inactive) | > 100 µM (inactive) | > 100 µM (inactive) |  | > 100 µM (inactive) | > 100 µM |  |  |
| Cc1nc(N)nc(CCC(=O)Nc2cccc(C(F)(F)F)c2)c1-c1ccc(Cl)cc1 | > 100 µM (inactive) | > 100 µM (inactive) | > 100 µM (inactive) | > 100 µM (inactive) | > 100 µM (inactive) | > 100 µM (inactive) | > 100 µM (inactive) | > 100 µM (inactive) | > 100 µM (inactive) | > 100 µM (inactive) | > 100 µM (inactive) | > 100 µM (inactive) | > 100 µM (inactive) | > 100 µM (inactive) | > 100 µM (inactive) | > 100 µM (inactive) | > 100 µM |  |  |
| CCCCCCCCCCC(O)[C@H]1CCC(C2CC[C@H]([C@H](O)CCCCCCCCCCC(O)CC3=CC(C)OC3=O)O2)O1 (stereo not given in full) | 1.82 µM (inactive) | 3.08 µM (inactive) | 1.76 µM (inactive) | 1.44 µM (inactive) | 3.51 µM (inactive) | 1.53 µM (inactive) | 1.11 µM (active) | 1.76 µM (inactive) | 1.8 µM (inactive) | 1.04 µM (active) | 2.05 µM (inactive) | 2.44 µM (inactive) | 1.24 µM (inactive) | 1.6 µM (inactive) | 1.56 µM (inactive) | 2.25 µM (inactive) | 2.01 µM | 1.21 µM (inactive) | 4.57 µM (inactive) |
| COc1ccc(/C(Cl)=C(\c2ccc(OCCN(C)C)cc2)c2ccc(OC(=O)C(C)(C)C)cc2)cc1 | 16 µM (inactive) | 15.7 µM (inactive) | 8.28 µM (inactive) | 15 µM (inactive) | 10.4 µM (inactive) | 15.9 µM (inactive) | 12.9 µM (inactive) | 10.2 µM (inactive) | 3.01 µM (inactive) | 10.3 µM (inactive) | 11.1 µM (inactive) | 18.1 µM (inactive) | 16 µM (inactive) | 5.07 µM (inactive) | 13.8 µM (inactive) | 13.4 µM (inactive) | 10.6 µM |  |  |
| CCOC(=O)C1(C(=O)OCC)CC=C(C)CC12C(=O)Nc1ccccc12 (stereo not given) | > 100 µM (inactive) | > 100 µM (inactive) |  | > 100 µM (inactive) | > 100 µM (inactive) | > 100 µM (inactive) | > 100 µM (inactive) | > 100 µM (inactive) | > 100 µM (inactive) | > 100 µM (inactive) | > 100 µM (inactive) | > 100 µM (inactive) | > 100 µM (inactive) | > 100 µM (inactive) | > 100 µM (inactive) | > 100 µM (inactive) | > 100 µM |  |  |
| N#[N+]c1ccccc1Sc1ccc(Cl)cc1 |  | > 100 µM (inactive) | 32.2 µM (inactive) | > 100 µM (inactive) | > 100 µM (inactive) | > 100 µM (inactive) | 76.9 µM (inactive) | > 100 µM (inactive) | 75 µM (inactive) | > 100 µM (inactive) | > 100 µM (inactive) |  | > 100 µM (inactive) | > 100 µM (inactive) | > 100 µM (inactive) |  | > 100 µM |  |  |
| ClC1c2ccccc2C2(c3ccccc3)OOC1(c1ccccc1)O2 (stereo not given) | 1.7 µM (inactive) | 4.24 µM (inactive) | 1.4 µM (inactive) | 1.86 µM (inactive) | 1.61 µM (inactive) | 1.94 µM (inactive) | 2.32 µM (inactive) | 1.77 µM (inactive) | 1.38 µM (inactive) | 1.64 µM (inactive) | 1.95 µM (inactive) | 0.39 µM (active) | 1.55 µM (inactive) | 1.52 µM (inactive) | 2.31 µM (inactive) | 1.48 µM (inactive) | 1.53 µM |  |  |
| CC1=CC2CCC1(C)C/C2=C(/C)OC=O (stereo not given) | > 100 µM (inactive) | > 100 µM (inactive) | > 100 µM (inactive) | > 100 µM (inactive) | > 100 µM (inactive) | > 100 µM (inactive) | > 100 µM (inactive) | > 100 µM (inactive) | > 100 µM (inactive) | > 100 µM (inactive) | > 100 µM (inactive) | > 100 µM (inactive) | > 100 µM (inactive) | > 100 µM (inactive) | > 100 µM (inactive) | > 100 µM (inactive) | > 100 µM |  |  |
| CC(C)(C)OC(=O)N1CC(C)(C)N2C(=O)C3(CCCO3)C12 (stereo not given) | > 100 µM (inactive) | > 100 µM (inactive) | > 100 µM (inactive) | > 100 µM (inactive) | > 100 µM (inactive) | > 100 µM (inactive) | > 100 µM (inactive) | > 100 µM (inactive) | 58.9 µM (inactive) | > 100 µM (inactive) | > 100 µM (inactive) | > 100 µM (inactive) | > 100 µM (inactive) | 37.8 µM (inactive) | > 100 µM (inactive) | > 100 µM (inactive) | > 100 µM |  |  |
| CCC(Oc1ccc(OC)c2c1C(=O)CCC2)C(=O)O (stereo not given) | > 100 µM (inactive) | > 100 µM (inactive) | > 100 µM (inactive) | > 100 µM (inactive) | > 100 µM (inactive) | > 100 µM (inactive) | > 100 µM (inactive) | > 100 µM (inactive) | > 100 µM (inactive) | > 100 µM (inactive) | > 100 µM (inactive) |  | > 100 µM (inactive) | > 100 µM (inactive) | > 100 µM (inactive) | > 100 µM (inactive) | > 100 µM |  |  |
| CC(C)N1CCC2(CC1)NNc1ncccc1-n1cccc12 | > 100 µM (inactive) | > 100 µM (inactive) |  | > 100 µM (inactive) | > 100 µM (inactive) | > 100 µM (inactive) | > 100 µM (inactive) | > 100 µM (inactive) | > 100 µM (inactive) | > 100 µM (inactive) | > 100 µM (inactive) |  | > 100 µM (inactive) | > 100 µM (inactive) | > 100 µM (inactive) | > 100 µM (inactive) | > 10 µM |  |  |
| Oc1nnc(CNc2ccc(Cl)cc2Cl)c2ccccc12 | 28.1 µM (inactive) | 24.4 µM (inactive) | 13.9 µM (inactive) | 17.7 µM (inactive) | 16.7 µM (inactive) | 82.8 µM (inactive) | 36.1 µM (inactive) | 23.6 µM (inactive) | 44.9 µM (inactive) | 24.6 µM (inactive) | 22.3 µM (inactive) | 32.7 µM (inactive) | 22.8 µM (inactive) | 19.5 µM (inactive) | 17.1 µM (inactive) | 34.3 µM (inactive) | 20.1 µM |  |  |
| CN(C)/C=N\c1ccn(CCO)c(=O)n1 | > 100 µM (inactive) | > 100 µM (inactive) | > 100 µM (inactive) | > 100 µM (inactive) | > 100 µM (inactive) | > 100 µM (inactive) | > 100 µM (inactive) | > 100 µM (inactive) | > 100 µM (inactive) | > 100 µM (inactive) | > 100 µM (inactive) |  | > 100 µM (inactive) | > 100 µM (inactive) | > 100 µM (inactive) | > 100 µM (inactive) | > 100 µM |  |  |
| CC(=O)NC1=C(NCC(C)C)C(=O)c2ccccc2C1=O | 38.3 µM (inactive) | 65.9 µM (inactive) | 12.5 µM (inactive) | 54.3 µM (inactive) | 14.6 µM (inactive) | 26 µM (inactive) | 16 µM (inactive) | 16.9 µM (inactive) | 15.3 µM (inactive) | 34.7 µM (inactive) | 17.1 µM (inactive) | 14.3 µM (inactive) | > 100 µM (inactive) | 14.4 µM (inactive) | 17.3 µM (inactive) | 16.9 µM (inactive) | 17.7 µM |  |  |
| CCn1c(=O)c2ccccc2n2c(=O)c3cc4ccccc4cc3nc12 | 52.1 µM (inactive) | > 100 µM (inactive) | 15.2 µM (inactive) | > 100 µM (inactive) | 37.3 µM (inactive) | > 100 µM (inactive) | > 100 µM (inactive) | 27.4 µM (inactive) | > 100 µM (inactive) | > 100 µM (inactive) |  |  | > 100 µM (inactive) | > 100 µM (inactive) | 62.7 µM (inactive) | > 100 µM (inactive) | > 100 µM |  |  |

Source: ChEMBL document CHEMBL1201862, “PubChem BioAssay data set” (2004)
